Measured values taken from patent publication US20220170930A1, “METHOD FOR SCREENING COMPOUND FOR TREATING OR PREVENTING POLYQ-RELATED NEURODEGENERATIVE DISEASES” (FUDAN UNIVERSITY, priority 2019, published 2022).

Experiments:
[1] = target: T1, HTTexon1-Q72-MBP (Homo sapiens, UniProt P42858, INS38QQQQQQQQQQQQQQQQQQQQQQQQQQQQQQQQQQQQQQQQQQQQQQQQQQQ); assay: OI-RD affinity screening and affinity reaction parameters with HTTexon1-Q72; format: binding
T1 construct: made in house; host or cells: mammalian expression vector pTT5SH8Q2
T1 sequence (P42858 with tags, fused parts or gaps, stated change not applied): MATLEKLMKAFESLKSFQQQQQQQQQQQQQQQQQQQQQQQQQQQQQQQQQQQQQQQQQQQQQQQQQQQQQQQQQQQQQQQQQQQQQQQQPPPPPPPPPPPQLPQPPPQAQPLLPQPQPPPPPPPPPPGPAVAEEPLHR
Method: Each compound was printed in duplicate on the microarray. The compound not fixed on the surface of the chip was washed away. The chip was sealed and cleaned. 01-RD microscope was applied to scan the images. […] The chips are cleaned and scanned.
(§1) The difference images of the above steps (1), (2), (3) (the image after incubation minus the image before incubation) was analyzed respectively.
(§2) Each compound was printed in triplicates on the microarray. 01-RD was used to measure the affinity reaction parameters of compounds with HTTexon1-Q72 and HTTexon1-Q25.

[2] = target: T2, HTTexon1-Q25-MBP (Homo sapiens, UniProt P42858, DUP35-38); assay: OI-RD affinity with HTTexon1-Q25; format: binding
T2 construct: made in house; host or cells: mammalian expression vector pTT5SH8Q2
T2 sequence (P42858 with tags, fused parts or gaps DUP35-38): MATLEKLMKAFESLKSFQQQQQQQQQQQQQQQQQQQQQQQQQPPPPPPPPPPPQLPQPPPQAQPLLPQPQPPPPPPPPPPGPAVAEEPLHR
Method: OI-RD images before and after incubation with the target protein was obtained following the method in (1).
as §1, §2

[3] = target: T3, LC3B (Homo sapiens, UniProt Q9GZQ8); assay: OI-RD affinity with LC3B; format: binding
T3 construct: His8 (N, cleaved yes); GST (from pGEX-6P1) (N, cleaved yes); made in house; host or cells: E. coli BL21(DE3)pLsyS
Method: 01-RD images before and after incubation with the target protein was obtained following the method in (1).
as §1
Each compound was printed in triplicates on the microarray. 01-RD was used to measure the affinity reaction parameters of the compound with LC3B, full-length mHTT (flHTT-Q73) and full-length HTT-Q23 (flHTT-Q23).

[4] = test system: mHTT; assay: Western-blot mHTT level in primary cultured cortical neurons; format: cell-based, mouse; details: 2 days
Method: (§3) Primary cultured cortical neurons: The brains of Hdh^Q140/Q7 and Hdh^Q7/Q7 newborn mice (P0) were dissected, digested, dissociated, and cultured.
(§4) (1) The primary cultured Hdh^Q140/Q7 and Hdh^Q7/Q7 mouse cortical neuron cells were treated with the compound for 2 days.

[5] = target: T4, wtHTT (Mus musculus, UniProt P42859); assay: Western-blot wtHTT level in primary cultured cortical neurons; format: cell-based; details: Hdh^Q7/Q7 cortical neurons, 2 days
T4 construct: endogenous in cells; host or cells: primary cortical neurons of newborn Hdh Q140/Q7 and Hdh Q7/Q7 mice
Method: as §3, §4

[6] = target: T5, mHTT (Homo sapiens, UniProt P42858, INS38QQQQQQQQQQQQQQQQQQQQQQQQQQ); assay: HTRF mHTT level in HD patient iPSC-derived neurons; format: cell-based; details: iPSC-derived neurons (Q47)
T5 construct: endogenous in cells; host or cells: HD patient iPSC-derived neurons (Q47)
T5 sequence (P42858 other isoform, or with tags, fused parts or gaps with the stated changes): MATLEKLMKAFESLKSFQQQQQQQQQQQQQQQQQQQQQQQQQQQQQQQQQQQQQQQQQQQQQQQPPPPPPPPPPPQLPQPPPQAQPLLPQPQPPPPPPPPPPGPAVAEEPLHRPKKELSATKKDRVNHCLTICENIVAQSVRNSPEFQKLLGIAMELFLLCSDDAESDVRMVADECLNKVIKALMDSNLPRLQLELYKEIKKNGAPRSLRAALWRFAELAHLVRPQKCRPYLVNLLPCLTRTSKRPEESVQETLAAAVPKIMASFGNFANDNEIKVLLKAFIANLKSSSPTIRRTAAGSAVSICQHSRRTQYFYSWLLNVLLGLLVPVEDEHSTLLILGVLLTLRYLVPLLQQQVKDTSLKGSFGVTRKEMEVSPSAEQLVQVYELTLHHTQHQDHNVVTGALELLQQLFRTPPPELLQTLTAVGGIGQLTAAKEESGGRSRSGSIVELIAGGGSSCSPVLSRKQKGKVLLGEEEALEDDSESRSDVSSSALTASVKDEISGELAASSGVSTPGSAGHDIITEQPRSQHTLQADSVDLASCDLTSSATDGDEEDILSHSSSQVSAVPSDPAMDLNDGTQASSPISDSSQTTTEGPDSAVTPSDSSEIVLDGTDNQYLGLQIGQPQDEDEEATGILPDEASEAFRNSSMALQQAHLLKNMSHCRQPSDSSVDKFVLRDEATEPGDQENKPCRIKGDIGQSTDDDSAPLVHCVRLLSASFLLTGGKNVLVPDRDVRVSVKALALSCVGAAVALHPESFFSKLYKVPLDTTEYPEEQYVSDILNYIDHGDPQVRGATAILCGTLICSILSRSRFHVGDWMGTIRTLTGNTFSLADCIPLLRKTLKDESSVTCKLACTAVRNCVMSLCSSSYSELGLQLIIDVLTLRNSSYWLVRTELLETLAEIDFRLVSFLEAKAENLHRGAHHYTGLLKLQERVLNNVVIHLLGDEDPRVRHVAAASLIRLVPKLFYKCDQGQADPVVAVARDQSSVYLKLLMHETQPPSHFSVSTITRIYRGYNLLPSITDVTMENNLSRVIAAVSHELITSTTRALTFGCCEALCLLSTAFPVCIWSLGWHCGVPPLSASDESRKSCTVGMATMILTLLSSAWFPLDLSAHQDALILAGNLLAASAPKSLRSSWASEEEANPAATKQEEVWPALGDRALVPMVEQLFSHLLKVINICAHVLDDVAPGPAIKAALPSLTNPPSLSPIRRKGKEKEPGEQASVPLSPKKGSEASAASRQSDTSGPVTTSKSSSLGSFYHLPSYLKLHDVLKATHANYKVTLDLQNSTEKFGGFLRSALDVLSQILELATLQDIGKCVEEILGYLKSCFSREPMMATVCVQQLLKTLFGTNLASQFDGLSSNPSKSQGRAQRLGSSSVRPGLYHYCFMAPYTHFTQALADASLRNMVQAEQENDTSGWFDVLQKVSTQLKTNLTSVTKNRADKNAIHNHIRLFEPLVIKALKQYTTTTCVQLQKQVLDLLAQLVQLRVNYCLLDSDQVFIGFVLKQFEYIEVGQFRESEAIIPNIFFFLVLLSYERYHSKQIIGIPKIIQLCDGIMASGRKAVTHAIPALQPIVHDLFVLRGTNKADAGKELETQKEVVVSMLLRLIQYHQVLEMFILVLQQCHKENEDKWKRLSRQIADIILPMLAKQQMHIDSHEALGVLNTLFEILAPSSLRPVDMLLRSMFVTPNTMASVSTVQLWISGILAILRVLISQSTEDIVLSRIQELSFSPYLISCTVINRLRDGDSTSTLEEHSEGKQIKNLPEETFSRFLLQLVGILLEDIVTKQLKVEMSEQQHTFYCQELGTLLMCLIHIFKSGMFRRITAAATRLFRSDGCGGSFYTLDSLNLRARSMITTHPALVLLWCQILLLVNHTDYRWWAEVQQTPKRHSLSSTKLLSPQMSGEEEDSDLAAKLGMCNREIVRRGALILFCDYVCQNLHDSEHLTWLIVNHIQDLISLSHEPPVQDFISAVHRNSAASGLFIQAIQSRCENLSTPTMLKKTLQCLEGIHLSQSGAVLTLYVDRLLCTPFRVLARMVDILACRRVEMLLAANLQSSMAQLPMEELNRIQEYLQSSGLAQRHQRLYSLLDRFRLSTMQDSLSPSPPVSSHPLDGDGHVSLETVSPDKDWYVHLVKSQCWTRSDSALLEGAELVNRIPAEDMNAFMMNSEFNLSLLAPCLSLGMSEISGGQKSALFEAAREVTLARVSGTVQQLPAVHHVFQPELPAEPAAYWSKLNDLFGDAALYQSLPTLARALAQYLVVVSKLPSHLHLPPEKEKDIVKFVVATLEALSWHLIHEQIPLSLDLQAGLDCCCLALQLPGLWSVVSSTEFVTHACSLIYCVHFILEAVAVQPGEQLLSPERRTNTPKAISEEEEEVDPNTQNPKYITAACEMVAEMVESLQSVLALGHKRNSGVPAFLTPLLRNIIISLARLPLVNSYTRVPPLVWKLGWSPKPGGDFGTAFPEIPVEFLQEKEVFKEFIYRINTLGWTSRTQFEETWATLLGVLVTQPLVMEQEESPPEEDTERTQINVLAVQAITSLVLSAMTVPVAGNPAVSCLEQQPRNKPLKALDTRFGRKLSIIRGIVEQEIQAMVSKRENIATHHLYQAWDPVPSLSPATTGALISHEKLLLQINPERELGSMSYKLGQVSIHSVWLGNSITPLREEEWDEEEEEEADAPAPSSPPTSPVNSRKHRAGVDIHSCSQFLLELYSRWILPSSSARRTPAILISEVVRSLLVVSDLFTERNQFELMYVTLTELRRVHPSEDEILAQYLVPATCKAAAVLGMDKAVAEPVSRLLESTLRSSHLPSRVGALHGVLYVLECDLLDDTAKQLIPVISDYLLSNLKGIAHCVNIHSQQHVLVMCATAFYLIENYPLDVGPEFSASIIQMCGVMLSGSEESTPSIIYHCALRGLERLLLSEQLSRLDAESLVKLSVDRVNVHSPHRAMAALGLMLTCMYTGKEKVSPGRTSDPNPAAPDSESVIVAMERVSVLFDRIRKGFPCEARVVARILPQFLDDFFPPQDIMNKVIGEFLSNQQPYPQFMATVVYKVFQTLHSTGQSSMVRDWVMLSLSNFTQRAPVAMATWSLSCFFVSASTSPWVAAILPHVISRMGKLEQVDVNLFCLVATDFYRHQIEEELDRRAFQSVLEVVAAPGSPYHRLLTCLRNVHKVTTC

[7] = test system: mHTT; assay: Intracerebroventricular injection, mHTT and wtHTT in cortices of HD mice; format: in vivo, mouse
Method: Experimental animals: Hdh^Q140/Q7 mice (3 months old), 4 in each group.
Each test includes three repetitions for each sample, and the mean values was calculated (FIG. 16).

[8] = test system: SQSTM1/p62; assay: SQSTM1/p62 level in mouse cortices after ip injection; format: in vivo; details: HD mice
Method: Using a method similar to 6.2, Hdh^Q140/Q7 mice were administered with injections. A method similar to 7.1 was used to detect the effects of ip-injection of compounds on other known autophagy selective substrate proteins (SQSTM1/p62) in the cortical tissue of Hdh^Q140/Q7 mice.

[9] = target: Q53-GFP; assay: OI-RD affinity reaction parameters with Q53-GFP; format: binding
Excerpt: (§5) (1) PolyQ-GFP cDNA sequence (expressing Met-polyQ-GFP, wherein polyQ was Q72 or Q25) was synthesized de novo and subcloned into pcDNA vector. […] And the same method was used to obtain cells expressing Q53-GFP, cells expressing Q46-GFP, and cells expressing Q38-GFP.

[10] = target: Q46-GFP; assay: OI-RD affinity reaction parameters with Q46-GFP; format: binding
Excerpt: as §5

[11] = test system: Q25-GFP; assay: OI-RD affinity screening with Q25-GFP; format: binding; details: OI-RD difference images
Excerpt: as §5

[12] = target: T6, MBP-ATXN3-Q28 (Homo sapiens, UniProt P54252, INS305QQQQQQQQQQQQQQQQQQ); assay: MST affinity with MBP-ATXN3-Q28; format: binding
T6 construct: His8 with TEV protease cleavage site; made in house; host or cells: Escherichia coli Rosetta(DE3)pLsyS
T6 sequence (P54252 with tags, fused parts or gaps isoform P54252-4 with the stated changes): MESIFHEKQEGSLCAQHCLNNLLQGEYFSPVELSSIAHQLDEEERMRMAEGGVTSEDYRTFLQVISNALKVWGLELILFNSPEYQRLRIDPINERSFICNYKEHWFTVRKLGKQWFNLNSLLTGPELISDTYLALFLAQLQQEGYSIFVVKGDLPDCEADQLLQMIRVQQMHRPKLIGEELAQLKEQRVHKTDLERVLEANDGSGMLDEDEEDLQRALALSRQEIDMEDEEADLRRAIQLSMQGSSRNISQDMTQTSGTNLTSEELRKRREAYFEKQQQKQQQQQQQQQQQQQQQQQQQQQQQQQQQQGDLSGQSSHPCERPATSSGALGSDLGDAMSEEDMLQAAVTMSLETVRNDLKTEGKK
Method: Protein concentration was 500 nM.

[13] = target: T7, His-ATXN1-Q92 (Homo sapiens, UniProt P54253, INS208QQQQQQQQQQQQQQQQQQQQQQQQQQQQQQQQQQQQQQQQQQQQQQQQQQQQQQQQQQQQQQQQQQQQQQQQQQQQQQQQ); assay: OI-RD affinity screening with His-ATXN1-Q92; format: binding; details: OI-RD difference images
T7 construct: made in house; host or cells: HEK293T cells (ATCC, CRL-3216)
T7 sequence (P54253 with tags, fused parts or gaps with the stated changes): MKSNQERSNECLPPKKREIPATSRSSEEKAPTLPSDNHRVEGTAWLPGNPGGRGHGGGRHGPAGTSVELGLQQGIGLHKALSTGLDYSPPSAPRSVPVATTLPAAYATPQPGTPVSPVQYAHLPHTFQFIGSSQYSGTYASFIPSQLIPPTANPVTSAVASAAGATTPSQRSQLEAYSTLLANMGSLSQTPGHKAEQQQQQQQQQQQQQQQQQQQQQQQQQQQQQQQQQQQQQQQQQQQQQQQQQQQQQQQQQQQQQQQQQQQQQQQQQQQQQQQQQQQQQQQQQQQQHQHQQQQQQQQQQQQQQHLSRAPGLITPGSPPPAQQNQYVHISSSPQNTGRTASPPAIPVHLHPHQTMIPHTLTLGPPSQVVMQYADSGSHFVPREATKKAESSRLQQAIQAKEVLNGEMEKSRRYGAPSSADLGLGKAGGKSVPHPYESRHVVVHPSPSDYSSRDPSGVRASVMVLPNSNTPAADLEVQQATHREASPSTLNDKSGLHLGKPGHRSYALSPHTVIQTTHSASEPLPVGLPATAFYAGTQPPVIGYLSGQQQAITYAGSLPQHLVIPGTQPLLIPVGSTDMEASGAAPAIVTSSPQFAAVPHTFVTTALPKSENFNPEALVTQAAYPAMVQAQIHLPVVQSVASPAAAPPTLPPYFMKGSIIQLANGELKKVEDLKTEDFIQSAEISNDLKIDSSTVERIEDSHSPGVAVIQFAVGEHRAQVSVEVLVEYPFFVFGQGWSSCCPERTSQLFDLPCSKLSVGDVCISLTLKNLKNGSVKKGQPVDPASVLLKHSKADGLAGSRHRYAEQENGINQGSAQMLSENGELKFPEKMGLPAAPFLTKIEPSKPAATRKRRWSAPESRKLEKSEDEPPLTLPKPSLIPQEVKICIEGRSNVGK
Method: (1) PolyQ-ATXN1 cDNA (where polyQ is Q92) was synthesized de novo and subcloned into pcDNA vector. It transfected into HEK293T cells (ATCC, CRL-3216) to obtain cells expressing His-ATXN1-Q92 (SEQ ID NO: 3 with a His tag at the N-terminal).
(2) The His-ATXN1-Q92 expressed in (1) was purified to obtain ATXN1 with abnormally expanded polyQ.
To identify compound(s) that can bind to ATXN1 with abnormally expanded polyQ, screening was conducted using a method similar to step (1) of 1.1, except for that the target protein HTTexon1-Q72-MBP in step (1) of 1.1 was replaced with His-ATXN1-Q92.

[14] = target: T8, mutant ATXN1 protein (His-ATXN1-Q92) (Homo sapiens, UniProt P54253, INS208QQQQQQQQQQQQQQQQQQQQQQQQQQQQQQQQQQQQQQQQQQQQQQQQQQQQQQQQQQQQQQQQQQQQQQQQQQQQQQQQ); assay: HTRF mutant ATXN1 level in His-ATXN1-Q92-expressing cells; format: cell-based; details: 100 nM, 2 days, anti-His-Tb/MW1-D2
T8 construct: expressed in transfected cells; host or cells: HEK293T cells (ATCC, CRL-3216)
T8 sequence (P54253 with tags, fused parts or gaps with the stated changes): as the sequence (P54253 with tags, fused parts or gaps with the stated changes) above

[15] = target: Q72-GFP; assay: MST affinity with Q72-GFP
Method: The affinity of the compound with full-length HTT and LC3B was verified with micro thermophoresis (MST) using Monolith NT.115 instrument from NanoTemper Technologies. The reaction buffer was 20 mM HEPES, pH 7.4, 150 mM NaCl.

## O=C1Nc2ccc(I)cc2/C1=C/c1cc(Br)c(O)c(Br)c1 [compound 1, GW5074]
[1]; OI-RD difference images
  binding to HTTexon1-Q72: can bind
[1]; OI-RD, HTTexon1-Q72
  Koff: 0.000238 s⁻¹
  Kon: 9.07e-05 min/nM
[1]; OI-RD, HTTexon1-Q72, read-out: Kd
  Kd: 158 nM
[2]
  binding to HTTexon1-Q25: do not bind
[3]; OI-RD difference images
  binding to LC3B: can bind
[3]; OI-RD, LC3B
  Koff: 0.00029 s⁻¹
  Kon: 3.72e-05 min/nM
[3]; OI-RD, LC3B, read-out: Kd
  Kd: 468 nM
[4]
  concentration range in which the effect of selectively reducing mHTT levels was observed: 30 to 300 nM
  preferred concentration for selectively reducing mHTT levels: 100 nM
[5]
  wtHTT levels: did not reduce wtHTT levels
[6]; 2B7/MW1
  mHTT levels: Decreased mHTT levels were observed
[6]; presence of the autophagy inhibitor NH4Cl
  mHTT levels: this effect was not observed
[7]; Hdh^Q140/Q7 mice, icv, 10 days
  mHTT selectivity relative to wtHTT: showed mHTT selectivity relative to wtHTT
[7]; mouse, in vivo
  mHTT level in cortices: significantly reduced mHTT level
[8]
  level of SQSTM1/p62 in the cortices: did not change
[9]
  Kd: 25 nM
  Koff: 6.3e-05 s⁻¹
  Kon: 0.000151 min/nM
[10]
  Kd: 60.2 nM
  Koff: 0.000305 s⁻¹
  Kon: 0.000304 min/nM
[11]
  binding to Q25-GFP: did not bind
[12]
  binding affinity with normal ATXN3 protein (MBP-ATXN3-Q28): no binding affinity
[13]
  binding to His-ATXN1-Q92: can bind
[14]
  level of mutant ATXN1 protein (His-ATXN1-Q92): Decreased levels of mutant ATXN1 were observed
[15]
  Kd: 3000 nM
